For 24 compounds, IC50 results are on record in patent US20090311217A1, “3-SUBSTITUTED-1H-INDOLE COMPOUNDS, THEIR USE AS MTOR KINASE AND PI3 KINASE INHIBITORS, AND THEIR SYNTHESES” (priority 2008, published 2009).

Holding throughout (type): biochemical
One test concerns the target PI3K-alpha (Homo sapiens, UniProt P42336). The test can be described thus: PI3K-alpha fluorescence polarization assay. The settings on record: read-out: PI3Kα Avg. IC50.
In the next test the target is PI3K-gamma (Homo sapiens, UniProt P48736). The test can be described thus: PI3K-gamma fluorescence polarization assay. The settings on record: PI3Kγ Avg. IC50. An outline of the steps:
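FP competition read-out: PIP3 produced displaces BODIPY-TMR-IP4 (5 nM) from GST-GRP1 PH domain (100 nM). Kinase step: 5 ng enzyme, 2.5 μM diC8-PIP2, 25 μM ATP, pH 7 HEPES/MgCl2, 1 h, 25° C; EDTA stop.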
(Polarisation of emitted light reports the rotation of a fluorescent probe.)

Another test concerns the target T1, human TOR (Homo sapiens, UniProt P42345).
T1 construct: FLAG
The test is described as follows: mTOR enzyme assay (DELFIA, His6-S6K substrate). The settings on record: read-out: mTOR Kinase Avg. IC50.

PI3K-alpha, sequence (P42336 whole entry, species assumed): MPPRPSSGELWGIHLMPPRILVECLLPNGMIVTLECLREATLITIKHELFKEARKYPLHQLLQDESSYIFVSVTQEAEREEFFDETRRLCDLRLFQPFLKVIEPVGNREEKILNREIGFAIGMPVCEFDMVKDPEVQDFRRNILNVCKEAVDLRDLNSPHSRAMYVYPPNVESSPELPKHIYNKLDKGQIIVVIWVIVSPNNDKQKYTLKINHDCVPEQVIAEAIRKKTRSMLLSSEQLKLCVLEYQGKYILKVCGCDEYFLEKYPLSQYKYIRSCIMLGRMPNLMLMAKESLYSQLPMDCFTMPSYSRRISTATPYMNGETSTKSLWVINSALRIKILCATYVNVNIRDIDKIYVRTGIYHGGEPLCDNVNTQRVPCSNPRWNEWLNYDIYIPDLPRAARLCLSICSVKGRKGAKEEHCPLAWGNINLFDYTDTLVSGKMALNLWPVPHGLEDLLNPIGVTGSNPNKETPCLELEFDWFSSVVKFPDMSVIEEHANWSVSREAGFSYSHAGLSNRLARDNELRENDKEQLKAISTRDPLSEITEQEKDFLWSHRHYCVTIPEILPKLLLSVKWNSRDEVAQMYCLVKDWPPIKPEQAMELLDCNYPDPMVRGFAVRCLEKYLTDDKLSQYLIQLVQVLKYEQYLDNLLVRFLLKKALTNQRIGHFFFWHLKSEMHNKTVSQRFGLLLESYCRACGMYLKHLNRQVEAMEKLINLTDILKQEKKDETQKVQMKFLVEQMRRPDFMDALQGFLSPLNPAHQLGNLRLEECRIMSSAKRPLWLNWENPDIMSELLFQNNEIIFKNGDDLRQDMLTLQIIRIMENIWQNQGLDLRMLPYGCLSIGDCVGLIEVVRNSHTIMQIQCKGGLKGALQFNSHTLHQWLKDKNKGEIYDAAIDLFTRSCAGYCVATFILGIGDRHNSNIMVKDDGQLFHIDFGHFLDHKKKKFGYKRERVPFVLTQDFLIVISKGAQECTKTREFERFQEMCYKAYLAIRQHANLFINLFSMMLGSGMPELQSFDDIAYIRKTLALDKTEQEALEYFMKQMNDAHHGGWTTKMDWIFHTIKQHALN
PI3K-alpha, sequence (P27986 whole entry partner, species assumed): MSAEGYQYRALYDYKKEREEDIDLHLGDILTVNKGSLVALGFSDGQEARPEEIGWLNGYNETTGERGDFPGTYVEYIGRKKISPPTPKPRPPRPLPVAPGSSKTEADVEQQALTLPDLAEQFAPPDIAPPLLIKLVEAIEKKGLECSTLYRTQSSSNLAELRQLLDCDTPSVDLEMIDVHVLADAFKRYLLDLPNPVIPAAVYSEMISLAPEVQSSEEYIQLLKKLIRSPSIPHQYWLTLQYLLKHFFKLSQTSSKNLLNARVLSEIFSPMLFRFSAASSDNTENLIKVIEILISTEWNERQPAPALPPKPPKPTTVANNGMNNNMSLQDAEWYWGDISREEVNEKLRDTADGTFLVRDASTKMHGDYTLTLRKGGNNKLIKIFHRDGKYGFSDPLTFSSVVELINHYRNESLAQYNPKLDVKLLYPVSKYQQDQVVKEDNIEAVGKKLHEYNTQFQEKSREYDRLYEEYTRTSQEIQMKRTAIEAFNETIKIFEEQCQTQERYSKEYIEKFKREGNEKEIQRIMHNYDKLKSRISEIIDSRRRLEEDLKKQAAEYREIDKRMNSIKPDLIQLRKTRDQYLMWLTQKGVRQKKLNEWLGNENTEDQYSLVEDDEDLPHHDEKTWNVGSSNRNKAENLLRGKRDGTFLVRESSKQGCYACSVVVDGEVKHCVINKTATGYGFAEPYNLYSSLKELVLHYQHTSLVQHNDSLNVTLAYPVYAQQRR
PI3K-gamma, sequence (P48736 whole entry, species assumed, the tested form may be a part): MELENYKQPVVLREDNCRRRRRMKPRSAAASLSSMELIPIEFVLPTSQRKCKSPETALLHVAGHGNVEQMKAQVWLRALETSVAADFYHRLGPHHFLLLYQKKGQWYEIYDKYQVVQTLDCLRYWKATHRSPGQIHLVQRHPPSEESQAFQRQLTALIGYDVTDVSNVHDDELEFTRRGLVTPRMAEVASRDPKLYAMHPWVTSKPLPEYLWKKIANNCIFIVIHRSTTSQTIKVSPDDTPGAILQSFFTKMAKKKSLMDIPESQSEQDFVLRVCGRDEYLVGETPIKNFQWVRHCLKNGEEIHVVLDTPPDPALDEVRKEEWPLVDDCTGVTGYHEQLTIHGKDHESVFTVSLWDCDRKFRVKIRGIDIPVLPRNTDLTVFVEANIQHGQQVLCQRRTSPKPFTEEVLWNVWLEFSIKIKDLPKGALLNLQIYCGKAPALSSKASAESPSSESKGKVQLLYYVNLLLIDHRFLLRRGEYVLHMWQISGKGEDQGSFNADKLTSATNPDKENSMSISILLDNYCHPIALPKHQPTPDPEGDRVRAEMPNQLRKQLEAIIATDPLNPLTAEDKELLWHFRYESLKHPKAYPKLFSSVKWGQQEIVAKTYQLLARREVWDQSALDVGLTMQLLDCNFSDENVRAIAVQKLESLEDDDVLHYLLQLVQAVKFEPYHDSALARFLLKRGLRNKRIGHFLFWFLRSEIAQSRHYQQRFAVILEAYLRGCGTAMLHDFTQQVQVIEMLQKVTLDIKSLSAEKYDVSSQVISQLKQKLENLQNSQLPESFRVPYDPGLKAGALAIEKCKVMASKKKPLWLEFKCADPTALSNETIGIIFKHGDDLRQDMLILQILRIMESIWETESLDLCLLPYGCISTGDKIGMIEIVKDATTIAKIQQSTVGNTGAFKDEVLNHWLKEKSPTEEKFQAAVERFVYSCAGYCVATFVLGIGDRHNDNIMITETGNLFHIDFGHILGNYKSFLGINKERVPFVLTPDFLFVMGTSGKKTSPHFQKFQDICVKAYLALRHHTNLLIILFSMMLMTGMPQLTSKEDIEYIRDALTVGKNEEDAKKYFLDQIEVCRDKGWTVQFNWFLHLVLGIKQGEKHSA

In the case of `CCOC(=O)c1ccc(-c2cccc3c2c(/C=C2\Oc4cc(O)cc(O)c4C2=O)cn3C)cc1` [Example 382, Ethyl 4-{3-[(Z)-(4,6-Dihydroxy-3-oxo-1-benzofuran-2(3H)-ylidene)methyl]-1-methyl-1H-indol-4-yl}benzoate], the figures for the 50% inhibitory concentration (IC50) at PI3K-alpha, at PI3K-gamma and at human TOR were 2920 nM, 4680 nM and 535 nM, respectively.

As for `CC(=O)Nc1ccc(-c2cccc3c2c(/C=C2\Oc4cc(O)cc(O)c4C2=O)cn3C)cc1` [Example 383, N-(4-{3-[(Z)-(4,6-Dihydroxy-3-oxo-1-benzofuran-2(3H)-ylidene)methyl]-1-methyl-1H-indol-4-yl}phenyl)acetamide], the IC50 (commonly the midpoint of a concentration-inhibition curve) on PI3K-alpha is 750 nM; on PI3K-gamma it was 2250 nM; at human TOR it was 12.3 nM.

Take `COc1ccc2c(c1)O/C(=C\c1c[nH]c3ccc(OC)cc13)C2=O` [Example 384, (2Z)-6-Methoxy-2-[(5-methoxy-1H-indol-3-yl)methylene]-1-benzofuran-3(2H)-one]: the values for the IC50 on PI3K-alpha, against PI3K-gamma and at human TOR were over 10000 nM, 2450 nM and over 20000 nM, respectively.

As for `CN(C)c1ccc(-c2cccc3c2c(/C=C2\Oc4cc(O)cc(O)c4C2=O)cn3C)cc1` [Example 385, (2Z)-2-({4-[4-(Dimethylamino)phenyl]-1-methyl-1H-indol-3-yl}methylene)-4,6-dihydroxy-1-benzofuran-3(2H)-one], the values for the IC50 at PI3K-alpha, on PI3K-gamma and at human TOR were 2790 nM, 7630 nM and 18 nM, respectively.

In the case of `Cn1cc(/C=C2\Oc3cc(O)cc(O)c3C2=O)c2c(-c3ccc(N4CCOCC4)nc3)cccc21` [Example 386, (2Z)-4,6-Dihydroxy-2-{[1-methyl-4-(6-morpholin-4-ylpyridin-3-yl)-1H-indol-3-yl]methylene}-1-benzofuran-3(2H)-one], the half-inhibitory concentration (IC50) at PI3K-alpha was determined as 1920 nM; against PI3K-gamma it was 5780 nM; at human TOR it was 69.5 nM.

As to `CN(C)CCCNC(=O)c1ccc(-c2cccc3c2c(/C=C2\Oc4cc(O)cc(O)c4C2=O)cn3C)cc1` [Example 387, 4-{3-[(Z)-(4,6-Dihydroxy-3-oxo-1-benzofuran-2(3H)-ylidene)methyl]-1-methyl-1H-indol-4-yl}-N-[3-(dimethylamino)propyl]benzamide], the IC50 was determined as 3520 nM at PI3K-alpha, 4590 nM against PI3K-gamma and 340 nM on human TOR.

On to `CC(=O)Nc1cccc(-c2cccc3c2c(/C=C2\Oc4cc(O)cc(O)c4C2=O)cn3C)c1` [Example 388, N-(3-{3-[(Z)-(4,6-Dihydroxy-3-oxo-1-benzofuran-2(3H)-ylidene)methyl]-1-methyl-1H-indol-4-yl}phenyl)acetamide], for which the results for the IC50 at PI3K-alpha, on PI3K-gamma and on human TOR were 1350 nM, 3280 nM and 200 nM, respectively.

For the compound `CNc1ccc(-c2cccc3c2c(/C=C2\Oc4cc(O)cc(O)c4C2=O)cn3C)cc1` [Example 389, (2Z)-4,6-Dihydroxy-2-({1-methyl-4-[4-(methylamino)phenyl]-1H-indol-3-yl}methylene)-1-benzofuran-3(2H)-one], the IC50 turned out to be 1870 nM on PI3K-alpha, 9860 nM on PI3K-gamma and 11.5 nM on human TOR.

As to `Cn1cc(/C=C2\Oc3cc(O)cc(O)c3C2=O)c2c(-c3cccc(O)c3)cccc21` [Example 390, (2Z)-4,6-Dihydroxy-2-{[4-(3-hydroxyphenyl)-1-methyl-1H-indol-3-yl]methylene}-1-benzofuran-3(2H)-one], the results for the concentration for half-maximal inhibition (IC50) on PI3K-alpha, at PI3K-gamma and at human TOR were 1120 nM, 2040 nM and 90 nM, respectively.

For the compound `COC(=O)Nc1ccc(-c2cccc3c2c(/C=C2\Oc4cc(O)cc(O)c4C2=O)cn3C)cc1` [Example 391, Methyl (4-{3-[(Z)-(4,6-Dihydroxy-3-oxo-1-benzofuran-2(3H)-ylidene)methyl]-1-methyl-1H-indol-4-yl}phenyl)carbamate], the half-inhibitory concentration (IC50) was 1150 nM at PI3K-alpha, 2390 nM against PI3K-gamma and 38.5 nM at human TOR.

Turning to `CNC(=O)c1ccc(-c2cccc3c2c(/C=C2\Oc4cc(O)cc(O)c4C2=O)cn3C)cc1` [Example 392, 4-{3-[(Z)-(4,6-dihydroxy-3-oxo-1-benzofuran-2(3H)-ylidene)methyl]-1-methyl-1H-indol-4-yl}-N-methylbenzamide], the IC50 was 453 nM at PI3K-alpha, over 7180 nM on PI3K-gamma and 17 nM at human TOR.

Take `CNC(=O)Nc1ccc(-c2cccc3c2c(/C=C2\Oc4cc(O)cc(O)c4C2=O)cn3C)cc1` [Example 393, 1-(4-{3-[(Z)-(4,6-Dihydroxy-3-oxo-1-benzofuran-2(3H)-ylidene)methyl]-1-methyl-1H-indol-4-yl}phenyl)-3-methylurea]: the half-inhibitory concentration (IC50) at PI3K-alpha was found to be 608 nM; at PI3K-gamma, 2520 nM; on human TOR it was 23.5 nM.

Turning to `CN(C)C(=O)Nc1ccc(-c2cccc3c2c(/C=C2\Oc4cc(O)cc(O)c4C2=O)cn3C)cc1` [Example 394, 3-(4-{3-[(Z)-(4,6-dihydroxy-3-oxo-1-benzofuran-2(3H)-ylidene)methyl]-1-methyl-1H-indol-4-yl}phenyl)-1,1-dimethylurea], the 50% inhibitory concentration (IC50) worked out at 460 nM on PI3K-alpha, 4120 nM against PI3K-gamma and 69 nM at human TOR.

With `CC(C)NC(=O)c1ccc(-c2cccc3c2c(/C=C2\Oc4cc(O)cc(O)c4C2=O)cn3C)cc1` [Example 395, 4-{3-[(Z)-(4,6-dihydroxy-3-oxo-1-benzofuran-2(3H)-ylidene)methyl]-1-methyl-1H-indol-4-yl}-N-isopropylbenzamide], the IC50 is 582 nM at PI3K-alpha, 3890 nM against PI3K-gamma and 95 nM at human TOR.

Take `Cn1cc(/C=C2\Oc3cc(O)cc(O)c3C2=O)c2c(-c3ccc(C(=O)N4CCCC4)cc3)cccc21` [Example 396, (2Z)-4,6-Dihydroxy-2-({1-methyl-4-[4-(pyrrolidin-1-ylcarbonyl)phenyl]-1H-indol-3-yl}methylene)-1-benzofuran-3(2H)-one]: the IC50 amounted to 547 nM at PI3K-alpha, 448 nM against PI3K-gamma and 30 nM at human TOR.

`Cn1cc(/C=C2\Oc3cc(O)cc(O)c3C2=O)c2c(-c3ccc(C#N)nc3)cccc21` [Example 397, 5-{3-[(Z)-(4,6-Dihydroxy-3-oxo-1-benzofuran-2(3H)-ylidene)methyl]-1-methyl-1H-indol-4-yl}pyridine-2-carbonitrile]: the values for the IC50 at PI3K-alpha, against PI3K-gamma and on human TOR were 1840 nM, 8530 nM and 20 nM, respectively.

`CN(C)c1cccc(-c2cccc3c2c(/C=C2\Oc4cc(O)cc(O)c4C2=O)cn3C)c1` [Example 398, (2Z)-2-({4-[3-(Dimethylamino)phenyl]-1-methyl-1H-indol-3-yl}methylene)-4,6-dihydroxy-1-benzofuran-3(2H)-one]: the IC50 came to 2760 nM on PI3K-alpha, 5260 nM on PI3K-gamma and 111 nM on human TOR.

Regarding `Cn1cc(/C=C2\Oc3cc(O)cc(O)c3C2=O)c2c(-c3ccc(C(=O)NCc4ccco4)cc3)cccc21` [Example 399, 4-{3-[(Z)-(4,6-dihydroxy-3-oxo-1-benzofuran-2(3H)-ylidene)methyl]-1-methyl-1H-indol-4-yl}-N-(2-furylmethyl)benzamide], the values for the half-maximal inhibitory concentration (IC50) at PI3K-alpha, on PI3K-gamma and at human TOR were 805 nM, over 10000 nM and 69.5 nM, respectively.

In the case of `Cn1cc(/C=C2\Oc3cccc(O)c3C2=O)c2c(-c3ccccc3)cccc21` [Example 400, (2Z)-4-Hydroxy-2-[(1-methyl-4-phenyl-1H-indol-3-yl)methylene]-1-benzofuran-3(2H)-one], the results for the IC50 on PI3K-alpha, against PI3K-gamma and at human TOR were over 10000 nM, over 10000 nM and over 19500 nM, respectively.

Take `Cn1cc(/C=C2\Oc3cc(O)cc(O)c3C2=O)c2c(-c3ccc(NC(=O)NC4CC4)cc3)cccc21` [Example 401, 1-cyclopropyl-3-(4-{3-[(Z)-(4,6-dihydroxy-3-oxo-1-benzofuran-2(3H)-ylidene)methyl]-1-methyl-1H-indol-4-yl}phenyl)urea]: the IC50 was 267 nM on PI3K-alpha, 2680 nM on PI3K-gamma and 61.5 nM at human TOR.

For the compound `Cn1cc(/C=C2\Oc3cc(O)cc(O)c3C2=O)c2c(-c3ccc(NCCN4CCOCC4)nc3)cccc21` [Example 402, (2Z)-4,6-Dihydroxy-2-[(1-methyl-4-{6-[(2-morpholin-4-ylethyl)amino]pyridin-3-yl}-1H-indol-3-yl)methylene]-1-benzofuran-3(2H)-one], the IC50 at PI3K-alpha is 3740 nM; at PI3K-gamma, 5940 nM; at human TOR, 355 nM.

For `Cn1cc(/C=C2\Oc3cc(O)cc(O)c3C2=O)c2c(-c3cnn(CCN4CCOCC4)c3)cccc21` [Example 403, (2Z)-4,6-Dihydroxy-2-({1-methyl-4-[1-(2-morpholin-4-ylethyl)-1H-pyrazol-4-yl]-1H-indol-3-yl}methylene)-1-benzofuran-3(2H)-one], the concentration for half-maximal inhibition (IC50) at PI3K-alpha turned out to be 1640 nM; at PI3K-gamma, 7710 nM; at human TOR, 123 nM.

`Cn1cc(/C=C2\Oc3cc(O)cc(O)c3C2=O)c2c(-c3ccc(NC(=O)N4CCOCC4)cc3)cccc21` [Example 404, N-(4-{3-[(Z)-(4,6-dihydroxy-3-oxo-1-benzofuran-2(3H)-ylidene)methyl]-1-methyl-1H-indol-4-yl}phenyl)morpholine-4-carboxamide]: the 50% inhibitory concentration (IC50) was 935 nM on PI3K-alpha, 1650 nM against PI3K-gamma and 61 nM on human TOR.

For the compound `COC(=O)Nc1ccc2c(c1)OC(=Cc1cn(CCCN(C)C)c3ccc(OC)cc13)C2=O` [Example 405, Methyl [2-({1-[3-(dimethylamino)propyl]-5-methoxy-1H-indol-3-yl}methylene)-3-oxo-2,3-dihydro-1-benzofuran-6-yl]carbamate], the 50% inhibitory concentration (IC50) was over 10000 nM at PI3K-alpha, over 10000 nM against PI3K-gamma and over 20000 nM on human TOR.
